Assay results: US20090069441A1, “Motuporamine Mimic Agents” (priority 2006, published 2009)
Where two headings read alike, the source gives them in different places.

Experiments:
[1] = test system: polyamine transporter (PAT); experiment: Ki for inhibition of [14C]spermidine uptake in L1210 cells; format: cell-based, mouse
Excerpt: (§1) In terms of Table 1, L1210 cells are mouse leukemia cells and are the gold standard in terms of evaluating polyamine cytotoxicity data due to a plethora of prior data in this cell line for other polyamine structures. Clearly 7a was similar in all respects to 4a (Table 1). […] The lower the Ki value, the higher the affinity of the drug for the polyamine transporter (PAT) on the cell surface. Chinese hamster ovary (CHO) cells and a mutant line without an active PAT (CHO-MG) also evaluated the PAT selectivity of these drugs.
L1210 IC50 and Ki studies. […] The Ki values in Table 3 were determined for [^14C]spermidine uptake and reflect the affinity of the polyamine derivative for the polyamine transporter on the cell surface. With both parameters, one can determine whether high affinity for the transporter (e.g., low Ki value) translated into high cytotoxicity (e.g., low IC50 value), etc.
Ki procedure. The ability of the conjugates to interact with the polyamine transport system was determined by measuring competition by the conjugates against radiolabeled spermidine uptake in L1210 cells. Initially, the Km value of spermidine transport was determined as previously described (Clément et al., Biochem. J. 1995, 312, 933-938). The ability of conjugates to compete for [^14C]spermidine uptake were determined in L1210 cells by a 10-min uptake assay in the presence of increasing concentrations of competitor, using 1 μM [^14C]spermidine as substrate. Ki values for inhibition of spermidine uptake were determined using the Cheng-Prusoff equation (Cheng and Prusoff, Biochem. Pharmacol. 1973, 22, 3099-3108) from the IC50 value derived by iterative curve fitting of the sigmoidal equation describing the velocity of spermidine uptake in the presence of the respective competitor (Torossian et al., Biochem. J., 1996, 319, 21-26). L1210 cells were grown and maintained according to established procedures (Bergeron et al., J. Med. Chem. 2000, 43, 224-235) and were washed twice in HBSS prior to the transport assay.

[2] = test system: CHO cells; experiment: Cytotoxicity in CHO cells; format: cell-based, Chinese hamster; settings: for IC50: Cricetulus griseus, CHO
Excerpt: as §1
CHO and CHO-MG studies. Chinese hamster ovary (CHO) cells were chosen along with a mutant cell line (CHO-MG) in order to comment on how the synthetic conjugates gain access to cells. The CHO-MG cell line is polyamine-transport deficient and was isolated after selection for growth resistance to methylglyoxalbis(guanylhydrazone), MGBG, (CH3C[═N—NHC(═NH)NH2]CH[═N—NHC(═NH)NH2]) using a single-step selection after mutagenesis with ethylmethanesulfonate (Mandel et al., J. Cell. Physiol., 1978, 97, 335-344; Byers et al., Biochem. J. 1989, 263, 745-752).
In contrast, the parent CHO cell line represents a cell type with high PAT activity. Comparison of conjugate cytotoxicity in these two CHO lines provided an important screen to detect selective conjugate delivery via the PAT. For example, a conjugate with high utilization of the polyamine transporter would be very toxic to CHO cells, but less so to CHO-MG cells. In short, highly-selective PAT ligands should give high (CHO-MG/CHO) IC50 ratios.
Biological studies. Murine leukemia cells (L1210), CHO and CHO-MG cells were grown in RPMI medium supplemented with 10% fetal calf serum, glutamine (2 mM), penicillin (100 U/mL), streptomycin (50 μg/mL). L-Proline (2 μg/mL) was added to the culture medium for CHO-MG cells. Cells were grown at 37° C. under a humidified 5% CO2 atmosphere. […] Trypan blue staining was used to determine cell viability before the initiation of a cytotoxicity experiment. Cells in early to mid log-phase were used. IC50 determinations. Cell growth was assayed in sterile 96-well microtiter plates (Becton-Dickinson, Oxnard, Calif., USA). L1210 cells were seeded at 5e^4 cells/mL of medium (100 μL/well). CHO and CHO-MG cells were plated at 2e^3 cells/mL. Drug solutions (10 μL per well) of appropriate concentration were added at the time of seeding for L1210 cells and after an overnight incubation for the CHO cell lines. After exposure to the drug for 48 hr, cell growth was determined by measuring formazan formation from 3-(4,5-dimethylthiazol-2-yl)2,5-diphenyltetrazolium using a Titertek Multiskan MCC/340 microplate reader for absorbance (540 nm) measurements (Mosmann, T., J. Immunol. Methods 1983, 65, 55-63).

Compound | Ki ([1]; new data, read-out: L1210 Ki value) [nM] | IC50 ([2]; 48 h incubation, new data, read-out: CHO IC50) [nM] | IC50 Ratio (CHO-MG/CHO), a measure of PAT selectivity ([2]; new data) | Ki ([1]; [14C]spermidine uptake, 10-min, 1 μM substrate, read-out: L1210 Ki values) [nM] | IC50 ([2]; absence of AG, 48 h, read-out: CHO IC50 w/o AG) [nM] | IC50 ([2]; in the presence of AG, 48 h at 37° C., read-out: CHO IC50) [nM] | CHOMG/CHO IC50 ratio in the absence of AG ([2]; absence of AG) | IC50 Ratio (CHO-MG/CHO) w/o AG ([2]; absence of AG) | IC50 Ratio (CHO-MG/CHO), a measure of PAT selectivity ([2]; in the presence of AG) | CHOMG/CHO IC50 ratio ([2]; with AG) | IC50 Ratio (CHO-MG/CHO) with AG ([2]; with AG)
CCN(CCCNCCCN)Cc1c2ccccc2cc2ccccc12 [Compound 7a, N-(3-Amino-propyl)-N′-anthracen-9-ylmethyl-N′-ethyl-propane-1,3-diamine] | 23500 | 5300 | 0.8 |  |  |  |  |  |  |  | 
NCCCCNCCCCNCc1c2ccccc2cc2ccccc12 [Compound 6b] |  |  |  | 1800 | 1740 | 450 | 4 | 4 | 148 | 148 | 148
